Where two headings read alike, the source gives them in different places. Marks after values point to notes of the source that are not given here.
Assay: log P by HPLC (EEC Directive 79/831 Annex V.A8)
Type: physicochemical
[1] = [b] LC-MS, acidic range, pH 2.7, 0.1% aqueous formic acid and acetonitrile
[2] = [c] LC-MS, neutral range, pH 7.8, 0.001 molar aqueous ammonium hydrogencarbonate and acetonitrile
[3] = HPLC, pH 2.7, given in the preparation examples, read-out: logP (pH2.7)

| SMILES | log P [1] | log P [2] | also measured |
| --- | --- | --- | --- |
| Cc1cc(C(F)(F)F)nn1CC(=O)N1CCC(c2cccc(C(=O)NC(C)c3ccccc3Cl)n2)CC1 (racemic) [Example 16] | 3.82 | 3.75 |  |
| CCCCCC(C)NC(=O)c1cccc(C2CCN(C(=O)Cn3nc(C(F)(F)F)cc3C)CC2)n1 (racemic) [Example 17] | 4.17 | 4.13 |  |
| Cc1cc(C(F)(F)F)nn1CC(=O)N1CCC(c2cccc(C(=O)NC3CCc4ccccc43)n2)CC1 (racemic) [Example 19] | 3.56^[b]; 3.56^[c] | 3.56^[b]; 3.56^[c] |  |
| CCOC(=O)c1cccc(C2=CCN(C(=O)OC(C)(C)C)CC2)n1 [1′-tert-butyl 6-ethyl-3′,6′-dihydro-2,4′-bipyridine-1′,6(2′H)-dicarboxylate] |  |  | logP (pH2.7) (pH 2.7, given in the preparation examples): 3.48 |
| CCOC(=O)c1cccc(C2CCNCC2)n1 [4-[6-(Ethoxycarbonyl)pyridin-2-yl]piperidinium chloride] |  |  | chromatographic logP [3]: 0.55 |
| O=C(O)c1cccc(N2CCN(C(=O)Cn3nc(C(F)F)cc3C(F)F)CC2)n1 [6-(4-{[3,5-Bis(difluoromethyl)-1H-pyrazol-1-yl]acetyl}piperazin-1-yl)pyridine-2-carboxylic acid] |  |  | chromatographic logP [3]: 0.68 |
| CC(C)(C)OC(=O)N1CCC(c2cccc(C(=O)O)n2)CC1 [6-[1-(tert-Butoxycarbonyl)piperidin-4-yl]pyridine-2-carboxylic acid] |  |  | chromatographic logP [3]: 1.78 |
| CCOC(=O)c1cccc(N2CCN(C(=O)Cn3nc(C(F)F)cc3C(F)F)CC2)n1 [Ethyl 6-(4-{[3,5-bis(difluoromethyl)-1H-pyrazol-1-yl]acetyl}piperazin-1-yl)pyridine-2-carboxylate] |  |  | chromatographic logP [3]: 2.71 |
| CCOC(=O)c1cccc(C2CCN(C(=O)OC(C)(C)C)CC2)n1 [Ethyl 6-[1-(tert-butoxycarbonyl)piperidin-4-yl]pyridine-2-carboxylate] |  |  | chromatographic logP [3]: 3.29 |
| CN(Cc1ccccc1Br)C(=O)c1cccc(C2CCN(C(=O)Cn3nc(C(F)F)cc3C(F)F)CC2)n1 [Example 1] | 3.32 | 3.37 |  |
| Cc1cc(C(F)(F)F)nn1CC(=O)N1CCC(c2cccc(C(=O)N(C)Cc3ccccc3Br)n2)CC1 [Example 2] | 3.47 | 3.49 |  |
| O=C(NCc1ccccc1Br)c1cccc(C2CCN(C(=O)Cn3nc(C(F)F)cc3C(F)F)CC2)n1 [Example 4] | 3.44 | 3.47 |  |
| Cc1cc(C(F)(F)F)nn1CC(=O)N1CCC(c2cccc(C(=O)NCc3ccccc3Br)n2)CC1 [Example 5] | 3.59^[b]; 3.59^[c] | 3.59^[b]; 3.59^[c] |  |
| Cc1cc(C(F)(F)F)nn1CC(=O)N1CCC(c2cccc(C(=O)OCCCC(F)(F)F)n2)CC1 [Example 6] | 3.37^[b] |  |  |
| O=C(OCc1ccccc1OC(F)(F)F)c1cccc(C2CCN(C(=O)Cn3nc(C(F)F)cc3C(F)F)CC2)n1 [Example 7] | 3.98^[b] |  |  |
| Cc1cc(C(F)(F)F)nn1CC(=O)N1CCC(c2cccc(C(=O)OCc3ccccc3OC(F)(F)F)n2)CC1 [Example 8] | 4.06^[b] |  |  |
| O=C(OCc1ccccc1OC(F)(F)F)c1cccc(C2CCN(C(=O)Cn3nc(C(F)F)cc3C(F)F)CC2)n1 [Example 9] | 3.89^[b] |  |  |
| Cc1cc(C(F)(F)F)nn1CC(=O)N1CCC(c2cccc(C(=O)N(C)c3ccccc3Cl)n2)CC1 [Example 10] | 3.18 | 3.2 |  |
| Cc1cc(C(F)(F)F)nn1CC(=O)N1CCC(c2cccc(C(=O)N(C)C3CCCCC3)n2)CC1 [Example 11] | 3.15 | 3.18 |  |
| Cc1cc(C(F)(F)F)nn1CC(=O)N1CCC(c2cccc(C(=O)N(C)C3CCCc4ccccc43)n2)CC1 (centres unmarked) [Example 12, N-Methyl-6-(1-{[5-methyl-3-(trifluoromethyl)-1H-pyrazol-1-yl]acetyl}piperidin-4-yl)-N-(1,2,3,4-tetrahydronaphthalen-1-yl)pyridine-2-carboxamide] |  |  | chromatographic logP (HPLC (LC-MS), [b] LC-MS, acidic range, pH 2.7, 0.1% aqueous formic acid and acetonitrile, read-out: log P): 3.61; chromatographic logP [3]: 3.61 |

| SMILES | log P [1] | log P [2] | also measured |
| --- | --- | --- | --- |
| Cc1cc(C(F)(F)F)nn1CC(=O)N1CCC(c2cccc(C(=O)N(C)Cc3ccc(Cl)cc3Cl)n2)CC1 [Example 13] | 3.85^[b]; 3.85^[c] | 3.85^[b]; 3.85^[c] |  |
| Cc1cc(C(F)(F)F)nn1CC(=O)N1CCC(c2cccc(C(=O)N(C)Cc3ccccn3)n2)CC1 [Example 14] |  | 2.23^[c] |  |
| Cc1cc(C(F)(F)F)nn1CC(=O)N1CCC(c2cccc(C(=O)N3CCOc4ccccc43)n2)CC1 [Example 15] | 3.04^[b]; 3.04^[c] | 3.04^[b]; 3.04^[c] |  |
| Cc1cc(C(F)(F)F)nn1CC(=O)N1CCC(c2cccc(C(=O)NC3CCCCC3)n2)CC1 [Example 18] |  | 3.46^[c] |  |
| CCCCCCCNC(=O)c1cccc(C2CCN(C(=O)Cn3nc(C(F)(F)F)cc3C)CC2)n1 [Example 20] | 4.25 | 4.24 |  |
| Cc1cc(C(F)(F)F)nn1CC(=O)N1CCC(c2cccc(C(=O)NCc3ccc(Cl)cc3Cl)n2)CC1 [Example 21] | 4.1 | 4 |  |
| Cc1cc(C(F)(F)F)nn1CC(=O)N1CCC(c2cccc(C(=O)NCc3ccc(F)cc3F)n2)CC1 [Example 22] | 3.36^[b]; 3.36^[c] | 3.36^[b]; 3.36^[c] |  |
| Cc1cc(C(F)(F)F)nn1CC(=O)N1CCC(c2cccc(C(=O)NCc3ccccc3Cl)n2)CC1 [Example 23] | 3.49 | 3.52 |  |
| Cc1cc(C(F)(F)F)nn1CC(=O)N1CCC(c2cccc(C(=O)NCc3c(F)cccc3F)n2)CC1 [Example 24] | 3.33 | 3.26 |  |
| Cc1cc(C(F)(F)F)nn1CC(=O)N1CCC(c2cccc(C(=O)NCc3ccccn3)n2)CC1 [Example 25] | 1.97 | 2.44 |  |
| Cc1cc(C(F)(F)F)nn1CC(=O)N1CCC(c2cccc(C(=O)NCc3cccs3)n2)CC1 [Example 26] | 3.15 | 3.1 |  |
| Cc1ccsc1CNC(=O)c1cccc(C2CCN(C(=O)Cn3nc(C(F)(F)F)cc3C)CC2)n1 [Example 27] | 3.29 | 3.34 |  |
| Cc1cc(C(F)(F)F)nn1CC(=O)N1CCC(c2cccc(C(=O)Nc3c(F)cccc3F)n2)CC1 [Example 28] | 3.13 | 3.15 |  |
| Cc1cc(C(F)(F)F)nn1CC(=O)N1CCC(c2cccc(C(=O)Nc3cccc4ccccc34)n2)CC1 [Example 29] | 3.94 |  |  |
| Cc1cc(C(F)(F)F)nn1CC(=O)N1CCC(c2cccc(C(=O)Nc3ccc4ccccc4c3)n2)CC1 [Example 30] | 4.09 | 4.11 |  |
| Cc1cc(C(F)(F)F)nn1CC(=O)N1CCC(c2cccc(C(=O)Nc3cccc4cccnc34)n2)CC1 [Example 31] | 4.02 | 4.04 |  |
| Cc1cc(C(F)(F)F)nn1CC(=O)N1CCC(c2cccc(C(=O)OC(C)c3ccccc3Cl)n2)CC1 (centres unmarked) [Example 32] | 4.12^[b] |  |  |
| Cc1cc(C(F)(F)F)nn1CC(=O)N1CCC(c2cccc(C(=O)OC3C=CCCC3)n2)CC1 (centres unmarked) [Example 33] | 3.64^[b] |  |  |
| Cc1cc(C(F)(F)F)nn1CC(=O)N1CCC(c2cccc(C(=O)OC3CCCCC3)n2)CC1 [Example 34] | 3.9^[b] |  |  |
| Cc1cc(C(F)(F)F)nn1CC(=O)N1CCC(c2cccc(C(=O)OC3CCCc4ccccc43)n2)CC1 (centres unmarked) [Example 35] | 4.15^[b] |  |  |

| SMILES | log P [1] | log P [2] | also measured |
| --- | --- | --- | --- |
| Cc1cc(C(F)(F)F)nn1CC(=O)N1CCC(c2cccc(C(=O)OCC#Cc3ccccc3Cl)n2)CC1 [Example 36] | 4.03^[b] |  |  |
| Cc1cc(C(F)(F)F)nn1CC(=O)N1CCC(c2cccc(C(=O)OCC(C)(C)C)n2)CC1 [Example 37] | 3.86^[b] |  |  |
| Cc1cc(C(F)(F)F)nn1CC(=O)N1CCC(c2cccc(C(=O)OCC3CCCCC3)n2)CC1 [Example 38] | 4.38^[b] |  |  |
| C=CCCCCOC(=O)c1cccc(C2CCN(C(=O)Cn3nc(C(F)(F)F)cc3C)CC2)n1 [Example 39] | 3.86^[b] |  |  |
| CCCCCCCOC(=O)c1cccc(C2CCN(C(=O)Cn3nc(C(F)(F)F)cc3C)CC2)n1 [Example 40] | 4.73^[b] |  |  |
| COCCOC(=O)c1cccc(C2CCN(C(=O)Cn3nc(C(F)(F)F)cc3C)CC2)n1 [Example 41] | 2.46^[b] |  |  |
| Cc1cc(C(F)(F)F)nn1CC(=O)N1CCC(c2cccc(C(=O)OCc3ccc(F)cc3F)n2)CC1 [Example 42] | 3.6^[b] |  |  |
| Cc1cc(C(F)(F)F)nn1CC(=O)N1CCC(c2cccc(C(=O)OCc3c(F)cc(F)cc3F)n2)CC1 [Example 43] | 3.69^[b] |  |  |
| Cc1ccccc1COC(=O)c1cccc(C2CCN(C(=O)Cn3nc(C(F)(F)F)cc3C)CC2)n1 [Example 44] | 3.8^[b] |  |  |
| Cc1cc(C(F)(F)F)nn1CC(=O)N1CCC(c2cccc(C(=O)OCc3ccccc3C(F)(F)F)n2)CC1 [Example 45] | 3.97^[b] |  |  |
| Cc1cc(C(F)(F)F)nn1CC(=O)N1CCC(c2cccc(C(=O)OCc3ccccc3Cl)n2)CC1 [Example 46] | 3.84^[b] |  |  |
| Cc1cc(C(F)(F)F)nn1CC(=O)N1CCC(c2cccc(C(=O)OCc3ccccc3F)n2)CC1 [Example 47] | 3.52^[b] |  |  |
| Cc1cc(C(F)(F)F)nn1CC(=O)N1CCC(c2cccc(C(=O)OCc3c(F)cccc3F)n2)CC1 [Example 48] | 3.51^[b] |  |  |
| Cc1cccnc1COC(=O)c1cccc(C2CCN(C(=O)Cn3nc(C(F)(F)F)cc3C)CC2)n1 [Example 49] | 2.23^[b] |  |  |
| Cc1ccnc(COC(=O)c2cccc(C3CCN(C(=O)Cn4nc(C(F)(F)F)cc4C)CC3)n2)c1 [Example 50] | 3.67^[b] |  |  |
| Cc1cc(C(F)(F)F)nn1CC(=O)N1CCC(c2cccc(C(=O)Oc3cccc4ccccc34)n2)CC1 [Example 51] | 3.97^[b] |  |  |
| Cc1cc(C(F)(F)F)nn1CC(=O)N1CCC(c2cccc(C(=O)Oc3ccc4ccccc4c3)n2)CC1 [Example 52] | 3.9^[b] |  |  |
| Cc1cc(C(F)(F)F)nn1CC(=O)N1CCC(c2cccc(C(=O)SC3CCCCC3)n2)CC1 [Example 53] |  | 4.83^[c] |  |
| Cc1cc(C(F)(F)F)nn1CC(=O)N1CCC(c2cccc(C(=O)SCc3ccc(Cl)cc3Cl)n2)CC1 [Example 55] | 5.17 | 5.21 |  |
